From US6090828A, “5-aryleheteroarylalkyl-1,3,5-trisubstituted-1,2,4-triazole compounds for treatment of circulatory disorders” (priority 1997, dated 2000)
Where two headings read alike, the source gives them in different places.

Assays:
[1] = target: T1, rabbit aortic rings (Oryctolagus cuniculus, UniProt P34976); assay: Assay B: In Vitro Vascular Smooth Muscle Response for AII; parameters: species or system rabbit (male New Zealand white); conditions: rabbit aorta rings, two rabbits per antagonist, antagonist 10^-5 M, 5 minutes, AII contraction, Schild
T1 construct: The thoracic aorta was removed, cleaned of adherent fat and connective tissue and then cut into 3-mm ring segments; from tissue; host or cells: rabbit thoracic aorta rings, endothelium removed
T1 sequence (P34976 1-359): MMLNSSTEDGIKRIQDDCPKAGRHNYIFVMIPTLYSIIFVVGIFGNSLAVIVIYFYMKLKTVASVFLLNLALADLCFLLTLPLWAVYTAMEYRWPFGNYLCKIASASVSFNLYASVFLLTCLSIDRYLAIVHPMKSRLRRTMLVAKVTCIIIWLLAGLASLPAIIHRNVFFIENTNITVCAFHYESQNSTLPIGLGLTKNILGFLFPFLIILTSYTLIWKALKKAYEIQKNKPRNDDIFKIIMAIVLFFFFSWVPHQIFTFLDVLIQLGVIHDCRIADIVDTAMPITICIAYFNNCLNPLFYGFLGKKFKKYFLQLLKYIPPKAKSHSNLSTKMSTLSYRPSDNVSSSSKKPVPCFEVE
Protocol: The compounds of the invention were tested for antagonist activity in rabbit aortic rings. Male New Zealand white rabbits (2-2.5 kg) were sacrificed using an overdose of pentobarbital and exsanguinated via the carotid arteries. The thoracic aorta was removed, cleaned of adherent fat and connective tissue and then cut into 3-mm ring segments. The endothelium was removed from the rings by gently sliding a rolled-up piece of filter paper into the vessel lumen. The rings were then mounted in a water-jacketed tissue bath, maintained at 37° C., between moveable and fixed ends of a stainless steel wire with the moveable end attached to an FT03 Grass transducer coupled to a Model 7D Grass Polygraph for recording isometric force responses. […] The preparations were equilibrated for one hour before approximately one gram of passive tension was placed on the rings. Angiotensin II concentration-response curves were then recorded (3×10^-10 to 1×10^-5 M). Each concentration of AII was allowed to elicit its maximal contraction, and then AII was washed out repeatedly for 30 minutes before rechallenging with a higher concentration of AII. Aorta rings were exposed to the test antagonist at 10^-5 M for 5 minutes before challenging with AII. Adjacent segments of the same aorta ring were used for all concentration-response curves in the presence or absence of the test antagonist. […] The pA2 value is the concentration of the antagonist which increases the EC50 value for AII by a factor of two. Each test antagonist was evaluated in aorta rings from two rabbits.

[2] = target: smooth muscle angiotensin II receptor; assay: Assay A: Angiotensin II Binding Activity; conditions: 50% displacement of specifically bound 125I-AII; rat uterine membranes; pH 7.5; 25° C., 60 min
Protocol: Compounds of the invention were tested for ability to bind to the smooth muscle angiotensin II receptor using a rat uterine membrane preparation. […] Rat uterine membranes were prepared from fresh tissue. All procedures were carried out at 4° C. Uteri were stripped of fat and homogenized in phosphate-buffered saline at pH 7.4 containing 5 mM EDTA. The homogenate was centrifuged at 1500×g for 20 min., and the supernatant was recentrifuged at 100,000×g for 60 min. The pellet was resuspended in buffer consisting of 2 mM EDTA and 50 mM Tris-HCl (pH 7.5) to a final protein concentration of 4 mg/ml. […] The reaction was initiated by the addition of membrane protein and the mixture was incubated at 25° C. for 60 min. The incubation was terminated with ice-cold 50 mM Tris-HCl (pH 7.5) and the mixture was filtered to separate membrane-bound labelled peptide from the free ligand. The incubation tube and filter were washed with ice-cold buffer. Filters were assayed for radioactivity in a Micromedic gamma counter. Nonspecific binding was defined as binding in the presence of 10 μM of unlabelled AII. Specific binding was calculated as total binding minus nonspecific binding. […] Binding data were analyzed by a nonlinear least-squares curve fitting program.

[3] = test system: pressor response to AII; assay: Assay C: In Vivo Intragastric Pressor Assay Response for AII Antagonists; parameters: species or system rat (male Sprague-Dawley); conditions: 3 mg/kg (i.g.), AII 30 ng/kg i.v. bolus; for Duration: followed to 180 minutes; for inhibition in vivo at 3 mg/kg: Rattus norvegicus, po
Protocol: The catheters were tunneled subcutaneously to exit dorsally, posterior to the head and between the scapulae. The catheters were filled with heparin (1000 units/ml of saline). The rats were returned to their cage and allowed regular rat chow and water ad libitum. After full recovery from surgery (3-4 days), rats were placed in Lucite holders and the arterial line was connected to a pressure transducer. Arterial pressure was recorded on a Gould polygraph (mmHg). Angiotensin II was administered as a 30 ng/kg bolus via the venous catheter delivered in a 50 μl volume with a 0.2 ml saline flush. The pressor response in mm Hg was measured by the difference from pre-injection arterial pressure to the maximum pressure achieved. The AII injection was repeated every 10 minutes until three consecutive injections yielded responses within 4 mmHg of each other. These three responses were then averaged and represented the control response to AII. The test compound was suspended in 0.5% methylcellulose in water and was administered by gavage. The volume administered was 2 ml/kg body weight. The standard dose was 3 mg/kg. Angiotensin II bolus injections were given at 30, 45, 60, 75, 120, 150, and 180 minutes after gavage. The pressor response to AII was measured at each time point. The rats were then returned to their cage for future testing. A minimum of 3 days was allowed between tests. Percent inhibition was calculated for each time point following gavage by the following formula: [(Control Response-Response at time point)/Control Response]×100.

[4] = test system: angiotensin II receptor; conditions: cited from earlier work; for angiotensin II antagonist activity: binding experiments, functional assays and in vivo tests, literature
[5] = read-out: pA2 (first of two values) (converted)
[6] = read-out: pA2 (second of two values) (converted)

| Compound | pA2 (first of two values) [1] | pA2 (second of two values) [1] | IC50 [2] | Inhibition ([3]; conscious rats) | Duration [3] | angiotensin II antagonist activity [4] | Kb [1, 5] | Kb [1, 6] | inhibition in vivo at 3 mg/kg ([3]; conscious rats) | residual agonist activity ([4]; background statement) |
| --- | --- | --- | --- | --- | --- | --- | --- | --- | --- | --- |
| 5-[2-[5-[(1-butyl-3-propyl-1H-1,2,4-triazol-5-yl)methyl]-2-pyridinyl]phenyl]-1H-tetrazole [Example 3] | 7.46 | 7.23 | 150 nM | 10% | 140 min |  |  |  |  |  |
| CCCCc1nc(Cl)c(CC(=O)O)n1Cc1ccccc1[N+](=O)[O-] [2-butyl-4-choloro-1-(2-nitrobenzyl)imidazole-5-acetic acid] |  |  |  |  |  | specific competitive angiotensin II antagonist activity |  |  |  |  |
| CCCCc1nc(Cl)c(CC(=O)O)n1Cc1ccccc1Cl [2-n-butyl-4-chloro-1-(2-chlorobenzyl)imidazole-5-acetic acid] |  |  |  |  |  | specific competitive angiotensin II antagonist activity |  |  |  |  |
| CCCCc1nc(Cc2ccc(-c3ccccc3-c3nnn[nH]3)nc2)n(CCCC)n1 [Example 1, 5-[2-[5-[(1,3-dibutyl-1H,1,2,4-triazol-5-yl)methyl]-2-pyridinyl]phenyl]-1H-tetrazole] |  |  | 14 nM |  | > 180 min |  | 9.33 nM | 15.8 nM | 25% |  |
| CCCCn1nc(CCc2cccs2)nc1Cc1ccc(-c2ccccc2-c2nnn[nH]2)nc1 [Example 4, 5-[2-[5-[[1-butyl-3-[2-(2-thienyl)ethyl]-1H-1,2,4-triazol-5-yl]methyl]-2-pyridinyl]phenyl]-1H-tetrazole] |  |  | 13 nM |  | > 180 min |  | 5.01 nM | 20.4 nM | 25% |  |
| CCCCn1nc(-c2ccccc2Cl)nc1Cc1ccc(-c2ccccc2-c2nnn[nH]2)nc1 [Example 9, 5-[2-[5-[[1-butyl-3-(2-chlorophenyl)-1H-1,2,4-triazol-5-yl]methyl]-2-pyridinyl]phenyl]-1H-tetrazole] |  |  | 54 nM |  | > 180 min |  | 5.89 nM | 7.24 nM | 30% |  |
| CCCCn1nc(C(O)CCC)nc1Cc1ccc(-c2ccccc2-c2nnn[nH]2)nc1 (stereo not shown) [Example 10, 5-[2-[5-[[1-butyl-3-(1-hydroxybutyl)-1H-1,2,4-triazol-5-yl]methyl]-2-pyridinyl]phenyl]-1H-tetrazole] |  |  | 21 nM |  | 150 min |  | 12 nM | 27.5 nM | 10% |  |
| CCCn1nc(C(F)(F)CCC)nc1Cc1ccc(-c2ccccc2-c2nnn[nH]2)nc1 [Example 20, 5-[2-[5-[[1-propyl-3-(1,1-difluorobutyl)-1H-1,2,4-triazol-5-yl]methyl]-2-pyridinyl]phenyl]-1H-tetrazole] |  |  | 150 nM |  | 180 min |  | 16.6 nM | 26.3 nM | 15% |  |
| CCCCn1nc(C(F)(F)CCC)nc1Cc1ccc(-c2ccccc2-c2nnn[nH]2)nc1 [Example 21, 5-[2-[5-[[1-butyl-3-(1,1-difluorobutyl)-1H-1,2,4-triazol-5-yl]methyl]-2-pyridinyl]phenyl]-1H-tetrazole] |  |  | 26 nM |  | > 180 min |  | 83.2 nM | 17 nM | 40% |  |
| CCCCn1nc(C(=O)N(C)C(C)(C)C)nc1Cc1ccc(-c2ccccc2-c2nnn[nH]2)nc1 [Example 22, 5-[2-[5-[[1-butyl-3-(N-methyl-N-tertbutylamido)-1H-1,2,4-triazol-5-yl]methyl]-2-pyridinyl]phenyl]-1H-tetrazole] |  |  | 28 nM |  | 0 min |  | 30.2 nM | 77.6 nM | 0% |  |
| CCCCn1nc(C(OC)OC)nc1Cc1ccc(-c2ccccc2-c2nnn[nH]2)nc1 [Example 26, 5-[2-[5-[[1-butyl-3-dimethoxymethyl-1H-1,2,4-triazol-5-yl]methyl]-2-pyridinyl]phenyl]-1H-tetrazole] |  |  | 27 nM |  | 0 min |  |  |  | 0% |  |
| CCCCn1nc(C(OCC)OCC)nc1Cc1ccc(-c2ccccc2-c2nnn[nH]2)nc1 [Example 27, 5-[2-[5-[[1-butyl-3-diethoxymethyl-1H-1,2,4-triazol-5-yl]methyl]-2-pyridinyl]phenyl]-1H-tetrazole] |  |  | 9.8 nM |  | 150 min |  | 20.4 nM | 28.2 nM | 10% |  |
| CCCCn1nc(C2OCCCO2)nc1Cc1ccc(-c2ccccc2-c2nnn[nH]2)nc1 [Example 31, 5-[2-[5-[[1-butyl-3-[2-(1,3-dioxanyl)]-1H-1,2,4-triazol-5-yl]methyl]-2-pyridinyl]phenyl]-1H-tetrazole] |  |  | 20 nM |  | 180 min |  | 27.5 nM | 70.8 nM | 25% |  |
| CCCCn1nc(C2OCC(C)(C)CO2)nc1Cc1ccc(-c2ccccc2-c2nnn[nH]2)nc1 [Example 32, 5-[2-[5-[[1-butyl-3-[2-(5,5-dimethyl-1,3-dioxanyl)]-1H-1,2,4-triazol-5-yl]methyl]-2-pyridinyl]phenyl]-1H-tetrazole] |  |  | 21 nM |  | 180 min |  | 20 nM | 75.9 nM | 20% |  |
| CNCC(=O)N[C@@H](CCCN=C(N)N)C(=O)N[C@H](C(=O)N[C@@H](Cc1ccc(O)cc1)C(=O)N[C@H](C(=O)N[C@@H](Cc1cnc[nH]1)C(=O)N1CCC[C@H]1C(=O)N[C@@H](C)C(=O)O)C(C)C)C(C)C [Saralasin] |  |  |  |  |  |  |  |  |  | significant residual agonist activity |
